Values belong to the compound of their own block, whether it stands above or below them.
Experiments:
[1] = Half-life in the body, X842 compared to Linaprazan; assay type: in vivo; conditions: in comparison with Linaprazan
Method: (§1) X842 is a prodrug of Linaprazan, which was disclosed in WO 99/55706 and previously studied in Phase I and II studies. […] A clinical Phase I study has shown that administration of a single dose of X842 can maintain the intragastric acidity above pH 4 for 24 hours. X842 is therefore tailored for patients with severe erosive gastroesophageal reflux disease (eGERD).

intragastric acidity = assay type: in vivo, human
Method: as §1
Following absorption into the blood stream, X842 is quickly metabolized into Linaprazan, which is the active metabolite of X842. Whereas the plasma concentration of X842 is only very low and difficult to determine, the plasma concentration of Linaprazan may be determined instead. […] It is estimated that this requires a minimal plasma concentration (Cmin) of Linaprazan of at least about 240 nmol/L after 22 hours. At such doses, a once daily oral administration of the formulation would be sufficient. Therefore, in another aspect, the invention relates to the pharmaceutical composition as disclosed herein, wherein a unit dose of the composition provides a Cmin of Linaprazan in a human of at least about 240 nmol/L after 22 hours following oral administration of the pharmaceutical composition to said human.

[2] = Dynamic vapour sorption (DVS) analysis, hygroscopicity; assay type: physicochemical
Method: Analyses were performed on a Surface Measurement Systems DVS Intrinsic instrument. The relative humidity at 25° C. was calibrated against the deliquescense point of LiCL, Mg(NO3)2 and KCl. The sample (about 10-20 mg) was dried with nitrogen gas until a dm/dt below 0.002% per minute was reached. The instrument was running in dm/dt mode using a minimum dm/dt stability duration of 10 minutes and a maximum equilibrium time of 180 minutes. The sample was subjected to a sorption-desorption cycle running from 0 to 95 to 0% RH. One cycle consisted of 20 steps, those between 0 and 90% RH were taken in 10% RH each.
The hygroscopicity of Form A was investigated using DVS at 25° C. The water uptake at 25° C./80% RH was about 0.08%, which means that Form A is non-hygroscopic.

[3] = Thermogravimetric analysis (TGA); assay type: physicochemical; conditions: for degradation of the sample (temperature): 25 to 320° C., 10° C./minute
Method: Analyses were performed on a Mettler Toledo TGA/DSC1 instrument, coupled with a Thermo Nicolet iS10 spectrometer. The sample was flushed with dry nitrogen gas during the analysis. The sample was scanned from 25 to 320° C. with a scan rate of 10° C./minute.
Degradation of the sample occurred at approximately 248° C.
Melting of the sample occurred at approximately 211° C., and degradation of the sample occurred at approximately 251° C.

[4] = Phase I and II studies; cited from earlier work

half-life in the body [1]: longer
Compound: Cc1cccc(C)c1CNc1cc(C(=O)NCCOC(=O)CCCC(=O)O)cn2c(C)c(C)nc12 [Form X842, 5-{2-[({8-[(2,6-dimethylbenzyl)amino]-2,3-dimethylimidazo[1,2-a]pyridine-6-yl}carbonyl)-amino]ethoxy}-5-oxopentanoic acid]
time intragastric pH is maintained above 4 (intragastric acidity; after administration of X842, Phase I): 24 hours

hygroscopicity ([2]; DVS at 25° C.): non-hygroscopic
water uptake ([2]; DVS, 25° C./80% RH): about 0.08%
change of form after DVS (X-ray powder diffractograms before and after) ([2]; sorption-desorption cycle 0 to 95 to 0% RH, 25° C.): no change of form occurred
degradation of the sample (temperature) [3]: approximately 248 °C
weight loss before melting ([3]; before melting at approximately 217° C.): did not show any weight loss
Compound: Cc1cccc(C)c1CNc1cc(C(=O)NCCOC(=O)CCCC(=O)O)cn2c(C)c(C)nc12 [Form A, 5-{2-[({8-[(2,6-dimethylbenzyl)amino]-2,3-dimethylimidazo[1,2-a]pyridine-6-yl}carbonyl)-amino]ethoxy}-5-oxopentanoic acid]

degradation of the sample (temperature) [3]: approximately 251 °C
weight loss ([3]; in the range of 128-220° C., attributed to loss of isopropyl alcohol): approximately 1%
Compound: Cc1cccc(C)c1CNc1cc(C(=O)NCCOC(=O)CCCC(=O)O)cn2c(C)c(C)nc12 [Form B, 5-{2-[({8-[(2,6-dimethylbenzyl)amino]-2,3-dimethylimidazo[1,2-a]pyridine-6-yl}carbonyl)-amino]ethoxy}-5-oxopentanoic acid]

minimal plasma concentration (Cmin) of Linaprazan required to maintain intra-gastric pH above 4 for 24 hours (intragastric acidity; human, in vivo, po, 22 h): at least 240 nmol/L
Compound: Cc1cccc(C)c1CNc1cc(C(=O)NCCO)cn2c(C)c(C)nc12 [Linaprazan]
elimination from the body [4]: quickly eliminated
tolerability [4]: well tolerated

Reference: US20220002297A1, “POLYMORPHS OF X842” (Cinclus Pharma AG, priority 2020, published 2022)
